The text below walks through data of PubChem BioAssay (NCI).

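Dose response: 5 concentrations. Exposure: 48 h. Format: 96-well plates. Endpoint: linear interpolation; highest concentration if not reached. TGI: total growth inhibition.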 A value given as a limit tells only on which side of the number the result lay.

What all share (experiment): NCI-60 cell line screen, 48 h
Test [1] deals with SF-268 CNS.
The test system of test [2] is SNB-75 CNS.
The subject of test [3] is COLO 205 colon.
The test system of test [4] is SK-MEL-5 melanoma.
Test [5] deals with HCC-2998 colon.
Test [6] deals with K-562 leukemia.
The subject of test [7] is PC-3 prostate.
The subject of test [8] is HL-60(TB) leukemia.
In test [9] the test system is EKVX NSCLC.
For test [10], the system named is UACC-257 melanoma.
Test [11] concerns OVCAR-4 ovarian.
The test system of test [12] is SF-295 CNS.
In test [13] the test system is NCI-H460 lung.
Test [14] deals with A498 renal.
Test [15] has as its system A549 NSCLC.
In test [16] the test system is OVCAR-8 ovarian.
Test [17] relates to CAKI-1 renal.
In test [18] the test system is SK-OV-3 ovarian.
For test [19], the system named is NCI/ADR-RES ovarian.
The subject of test [20] is SF-539 CNS.

Regarding `CC(=O)NC1C(OC2C(CO)OC(OCC3OC(n4ccc(N)nc4=O)C(O)C3O)C(NC(C)=O)C2O)OC(CO)C(O)C1O` (stereo not given), the TGI in [1], in test [2], in test [3], in [4], in test [5] and in test [6] was more than 100 µM in each case. Also, the TGI in test [7], in test [8], in test [9], in [10], in test [11] and in [12] was more than 100 µM in each case. The TGI in test [13], in test [14], in test [15], in [16], in [17] and in test [18] was more than 100 µM each time. In addition, the TGI in test [19] and in test [20] was more than 100 µM in each case.
Regarding `Cn1c(=O)n2c(-c3ccccc3)c(-c3ccccc3)n2c1=O`, the TGI in test [2], in test [3], in [4], in [5], in test [6] and in test [7] was more than 100 µM in each case. In addition, the TGI in test [8], in test [9], in test [10], in [11], in test [12] and in [13] was more than 100 µM in each case. For the same molecule, the TGI in test [14], in [15], in test [16], in test [17], in [18] and in [19] was more than 100 µM in each case. In addition, the TGI in test [20] is more than 100 µM.
Turning to `C=C(C)[C@H]1C[C@@H]2O[C@@](O)(/C(C)=C\C(=O)/C=C(/C)C[C@H]3OC(=O)[C@@]24O[C@H]34)[C@@H]1O`, the TGI in test [1], in [2], in test [3], in test [4], in [5] and in [6] was more than 100 µM throughout. Moreover, the TGI in [7], in [8], in [9], in [10], in test [11] and in [12] was more than 100 µM throughout. For the same molecule, the TGI in [13], in test [14], in test [15], in [16], in test [17] and in [18] was more than 100 µM in each case. The TGI in test [19] and in [20] was more than 100 µM in each case.
On to `CC(C)(C)C1(O)C=C(O)C(=O)N1NC(=O)c1ccccc1Nc1ccccc1` (stereo not given), for which the TGI in test [1] is more than 100 µM; in [2], more than 100 µM; in [3] it was more than 100 µM; in [4], more than 100 µM; in test [5], 62.9 µM; in test [6], more than 100 µM. Moreover, the TGI in test [7] was more than 100 µM; in test [8], 7.25 µM; in test [9], more than 100 µM; in test [10], 72.2 µM; in [11] it was more than 100 µM; in test [12], more than 100 µM. Further, the TGI in test [13], in test [14], in test [15], in [16], in test [17] and in test [18] was more than 100 µM throughout. Further, the TGI in test [19] and in [20] was more than 100 µM throughout.
As to `C/C=C1/CN2CCC34c5ccccc5N(C)C23C2CC1C4(C(=O)OC)C(O)O2` (stereo not given), the TGI in test [1], in [2], in test [3], in [4], in [5] and in test [6] was more than 100 µM throughout. The TGI in [7], in test [8], in [9], in test [10], in [11] and in test [12] was more than 100 µM each time. The TGI in [13], in test [14], in [15], in [16], in test [17] and in test [18] was more than 100 µM each time. Besides, the TGI in test [19] and in test [20] was more than 100 µM throughout.
For the molecule `O=[N+]([O-])c1ccc(N/N=C(\c2ccccc2)c2ccccn2)nc1`, the TGI in test [1] was 35.5 µM; in [2] it was 28.4 µM; in test [3] it was more than 60 µM; in test [4], 26.5 µM; in test [5], more than 59.6 µM; in test [6], more than 100 µM. Besides, the TGI in test [7] was more than 44.7 µM; in test [8] it was 31.7 µM; in [9] it was 17.3 µM; in test [10] it was 29.8 µM; in [11], more than 100 µM; in test [12], 25.7 µM. Also, the TGI in [13] was 22.8 µM; in test [14], more than 100 µM; in test [15], 24.2 µM; in test [16] it was 23.8 µM; in test [17], 29.1 µM; in test [18] it was 24 µM. Besides, the TGI in [19] was 2.02 µM; in [20], 15.3 µM.
Turning to `CC1=NN(c2cccc(Cl)c2)C(=N/c2nc3ccccc3s2)/C1=C\c1cccs1`, the TGI in test [1] was more than 100 µM; in [2], more than 100 µM; in test [4] it was more than 100 µM; in [5], more than 100 µM; in test [6] it was 93.4 µM; in [7], more than 100 µM. Also, the TGI was 30.6 µM in test [8]; more than 100 µM in test [9]; more than 100 µM in test [10]; more than 100 µM in test [11]; more than 100 µM in test [12]; more than 100 µM in test [13]. In addition, the TGI is 82.5 µM in test [14]; more than 100 µM in test [16]; more than 100 µM in [17]; more than 100 µM in test [18]; 56.5 µM in test [19]; more than 100 µM in test [20].
As to `CC(C)(O)CO/N=C1\C(c2c(O)[nH]c3ccccc23)=Nc2ccccc21`, the TGI in test [1] was more than 60 µM; in test [2], 9.72 µM; in test [3], 2.29 µM; in test [4], 2.28 µM; in test [5], 3.27 µM; in test [6] it was more than 100 µM. The TGI is 12.4 µM in [7]; 3.1 µM in test [8]; more than 36.3 µM in [9]; more than 96.4 µM in [10]; 21.9 µM in test [11]; 18.4 µM in test [12]. Also, the TGI was 9.71 µM in test [13]; 3.63 µM in test [14]; 11.1 µM in test [15]; more than 44.4 µM in test [16]; 2.32 µM in [17]; 2.05 µM in test [18]. In addition, the TGI in test [19] is more than 64.8 µM; in test [20], 10.2 µM.
For `C/C=N\n1c(C)c(C#N)c(C#N)c1N`, the TGI in [1], in [2], in test [3], in [4], in test [5] and in test [6] was more than 100 µM each time. For the same molecule, the TGI in test [7], in test [8], in test [9], in test [10], in test [11] and in test [12] was more than 100 µM each time. Besides, the TGI in [14], in test [15], in test [16], in test [17], in test [18] and in test [19] was more than 100 µM in each case. The molecule further gave a TGI in test [20] of more than 100 µM.
Consider `CSc1nc2c(c(=O)[nH]1)N=C(c1ccc(Cl)cc1)CC(c1ccccc1)N2` (stereo not given), for which the TGI in [2] was 24.7 µM; in test [3], 34 µM; in test [4] it was 26.1 µM; in test [5], 28.8 µM; in test [6], 44.9 µM; in test [7], 45.3 µM. Also, the TGI in test [8] is 39.6 µM; in [9] it was 40.9 µM; in test [10], 34.3 µM; in test [11], 23.6 µM; in test [12], 32.6 µM; in test [14], more than 100 µM. Moreover, the TGI in [15] was 26.4 µM; in test [16], 31.4 µM; in test [17] it was 34.2 µM; in [19] it was 29.5 µM; in test [20], 33.3 µM.
Take `CC(=O)C1=C(C)N2C(=NC3=C(CCc4ccccc43)C2c2cccc(Br)c2)S1` (stereo not given): the TGI in test [1], in [2], in test [3], in test [4], in test [5] and in [7] was more than 100 µM in each case. The TGI in test [8], in test [9], in test [10], in test [11], in test [12] and in test [14] was more than 100 µM throughout. In addition, the TGI in [15], in test [16], in test [18], in [19] and in test [20] was more than 100 µM throughout.
As to `CC1C2(C)OC(=N)C(C#N)(C(C)O2)C1(C#N)C#N` (stereo not given), the TGI in test [1] is more than 100 µM; in [2], more than 100 µM; in test [3] it was 24.5 µM; in [4], 25.8 µM; in [5], 50.5 µM; in [6], more than 100 µM. In addition, the TGI in test [7] is more than 100 µM; in test [8] it was 41.1 µM; in test [9], more than 100 µM; in [10], 46 µM; in [12], more than 100 µM; in test [13], 42.8 µM. Further, the TGI in [14] is more than 100 µM; in test [15] it was more than 100 µM; in test [16], more than 100 µM; in [17], 26.4 µM; in test [18], more than 100 µM; in [19], more than 100 µM. Also, the TGI in [20] was 47.1 µM.
On to `COC(=O)CCc1ccc2c(c1)CC1(Cc3ccccc3C1)C2`, for which the TGI in [2], in test [3], in test [4], in test [5], in test [6] and in [7] was more than 100 µM each time. Moreover, the TGI in test [8], in [9], in test [10], in test [11], in [12] and in [14] was more than 100 µM in each case. Besides, the TGI in [15], in test [16], in [18], in test [19] and in test [20] was more than 100 µM in each case.
As to `CSc1ccc(-c2cc(-c3nc4ccccc4[nH]3)nc(N)c2C#N)cc1`, the TGI in test [1] was determined as 61.6 µM; in test [2] it was 57.8 µM; in test [3], 34.7 µM; in test [4] it was 29 µM; in test [5] it was 33.1 µM; in [6], 58.6 µM. The TGI in test [7] is 98.7 µM; in test [8] it was 48.9 µM; in [9] it was more than 100 µM; in test [10], 39.4 µM; in [12], 53 µM; in test [13] it was 72.5 µM. The TGI in test [14] was 50 µM; in [15], more than 100 µM; in test [16], more than 100 µM; in test [17], 54.4 µM; in [18], more than 100 µM; in test [19], more than 100 µM. In [20], this molecule had a TGI of 86 µM.
